Measured values from patent publication US4110327A, “2,3 Diketo-piperazinocarbonylamino alkanoic acids and derivatives” (Toyama Chemical Co., Ltd., priority 1974, dated 1978).
Converted amounts (≈) assume the structure as drawn.

Columns and labels:
Type in all cases: cell-based
Klebsiella pneumoniae [1] = test: MIC against clinical isolates; conditions: unit assumed
[2] = system: Staphylococcus aureus 209p; test: MIC against standard strain, plate method; conditions: unit assumed
Procedure: (§1) The minimum inhibitory concentrations (MIC) was determined by the plate method disclosed in "Chemotherapy" (Japan), Vol. 16, (1968), pages 98 - 99. The culture medium used was a Heart infusion agar (pH 7.4). The number of the cells per plate used in the inoculum as 10^4 (10^6 cells/ml).

Klebsiella pneumoniae [3] = test: MIC against standard strain, plate method; conditions: unit assumed
Procedure: as §1

Proteus vulgaris 3027 = test: MIC against standard strain, plate method; conditions: Proteus vulgaris 3027, standard strain; unit assumed
Procedure: as §1

[4] = system: Pseudomonas aeruginosa I.F.O.; test: MIC against standard strain, plate method; conditions: unit assumed
Procedure: as §1

Escherichia coli NIHJ = test: MIC against standard strain, plate method; conditions: unit assumed
Procedure: as §1

Pseudomonas aeruginosa = test: MIC against clinical isolates; conditions: unit assumed
Staphylococcus aureus = test: MIC against clinical isolates; conditions: unit assumed

Structure (SMILES): CCN1CCN(C(=O)N[C@@H](C(=O)N[C@@H]2C(=O)N3[C@@H]2SC(C)(C)[C@@H]3C(=O)O)c2ccccc2)CC1=O [compound 19]
- MIC (Klebsiella pneumoniae [1]; clinical isolate GN 917): 50 µg/mL (≈ 99.3 µM)
- MIC (Klebsiella pneumoniae [1]; clinical isolate GN 3850): 100 µg/mL (≈ 199 µM)
- MIC (Klebsiella pneumoniae [1]; clinical isolate GN 4081): > 200 µg/mL
- MIC (Klebsiella pneumoniae [1]; clinical isolate GN 4117): > 200 µg/mL
- MIC [2]: < 1.57 µg/mL
- MIC (Klebsiella pneumoniae [3]): 50 µg/mL (≈ 99.3 µM)
- MIC (Proteus vulgaris 3027): 3.13 µg/mL (≈ 6.22 µM)
- MIC [4]: 12.5 µg/mL (≈ 24.8 µM)
- MIC (Escherichia coli NIHJ): < 1.57 µg/mL
- MIC (Pseudomonas aeruginosa; clinical isolate GN 82): 12.5 µg/mL (≈ 24.8 µM)
- MIC (Pseudomonas aeruginosa; clinical isolate GN 163): 12.5 µg/mL (≈ 24.8 µM)
- MIC (Pseudomonas aeruginosa; clinical isolate GN 221): 12.5 µg/mL (≈ 24.8 µM)
- MIC (Pseudomonas aeruginosa; clinical isolate GN 376): 12.5 µg/mL (≈ 24.8 µM)
- MIC (Pseudomonas aeruginosa; clinical isolate GN 383): 12.5 µg/mL (≈ 24.8 µM)
- MIC (Pseudomonas aeruginosa; clinical isolate GN 1035): 100 µg/mL (≈ 199 µM)
- MIC (Pseudomonas aeruginosa; clinical isolate GN 1091): 12.5 µg/mL (≈ 24.8 µM)
- MIC (Pseudomonas aeruginosa; clinical isolate GN 2565): 50 µg/mL (≈ 99.3 µM)
- MIC (Pseudomonas aeruginosa; clinical isolate GN 2987): 12.5 µg/mL (≈ 24.8 µM)
- MIC (Pseudomonas aeruginosa; clinical isolate GN (number not given; Table 5-3)): 25 µg/mL (≈ 49.6 µM)
- MIC (Pseudomonas aeruginosa; clinical isolate S-1): 50 µg/mL (≈ 99.3 µM)
- MIC (Pseudomonas aeruginosa; clinical isolate S-2): 50 µg/mL (≈ 99.3 µM)
- MIC (Pseudomonas aeruginosa; clinical isolate S-3): 50 µg/mL (≈ 99.3 µM)
- MIC (Pseudomonas aeruginosa; clinical isolate S-4): 50 µg/mL (≈ 99.3 µM)

Structure (SMILES): CCN1CCN(C(=O)NC(C(=O)NC2C(=O)N3C(C(=O)O)=C(CSc4nnnn4C)CSC23)c2ccccc2)C(=O)C1=O (stereo not drawn) [compound 69]
- MIC (Klebsiella pneumoniae [1]; clinical isolate GN 917): 0.78 µg/mL (≈ 1.24 µM)
- MIC [2]: < 0.79 µg/mL
- MIC (Klebsiella pneumoniae [3]): < 0.4 µg/mL
- MIC (Proteus vulgaris 3027): < 0.79 µg/mL
- MIC [4]: 12.5 µg/mL (≈ 19.9 µM)
- MIC (Escherichia coli NIHJ): < 0.79 µg/mL
- MIC (Staphylococcus aureus; clinical isolate F-1): 3.13 µg/mL (≈ 4.97 µM)
- MIC (Staphylococcus aureus; clinical isolate F-2): 1.56 µg/mL (≈ 2.48 µM)
- MIC (Staphylococcus aureus; clinical isolate F-3): 0.78 µg/mL (≈ 1.24 µM)
- MIC (Staphylococcus aureus; clinical isolate F-4): 3.13 µg/mL (≈ 4.97 µM)
- MIC (Staphylococcus aureus; clinical isolate F-5): 0.78 µg/mL (≈ 1.24 µM)
- MIC (Staphylococcus aureus; clinical isolate MS 8588): 1.56 µg/mL (≈ 2.48 µM)
- MIC (Staphylococcus aureus; clinical isolate MS 8596): 1.56 µg/mL (≈ 2.48 µM)
- MIC (Staphylococcus aureus; clinical isolate MS 8619): 0.78 µg/mL (≈ 1.24 µM)
- MIC (Staphylococcus aureus; clinical isolate MS 8684): 1.56 µg/mL (≈ 2.48 µM)
- MIC (Staphylococcus aureus; clinical isolate MS 8713): 1.56 µg/mL (≈ 2.48 µM)
- MIC (Pseudomonas aeruginosa; clinical isolate GN 82): 12.5 µg/mL (≈ 19.9 µM)
- MIC (Pseudomonas aeruginosa; clinical isolate GN 163): 12.5 µg/mL (≈ 19.9 µM)
- MIC (Pseudomonas aeruginosa; clinical isolate GN 221): 6.25 µg/mL (≈ 9.93 µM)
- MIC (Pseudomonas aeruginosa; clinical isolate GN 244): 25 µg/mL (≈ 39.7 µM)
- MIC (Pseudomonas aeruginosa; clinical isolate GN 376): 12.5 µg/mL (≈ 19.9 µM)
- MIC (Pseudomonas aeruginosa; clinical isolate GN 383): 25 µg/mL (≈ 39.7 µM)
- MIC (Pseudomonas aeruginosa; clinical isolate GN 1035): 50 µg/mL (≈ 79.4 µM)
- MIC (Pseudomonas aeruginosa; clinical isolate GN 1091): 12.5 µg/mL (≈ 19.9 µM)
- MIC (Pseudomonas aeruginosa; clinical isolate GN 2565): 50 µg/mL (≈ 79.4 µM)
- MIC (Pseudomonas aeruginosa; clinical isolate GN 2987): 12.5 µg/mL (≈ 19.9 µM)
- MIC (Pseudomonas aeruginosa; clinical isolate S-1): 25 µg/mL (≈ 39.7 µM)
- MIC (Pseudomonas aeruginosa; clinical isolate S-2): 25 µg/mL (≈ 39.7 µM)
- MIC (Pseudomonas aeruginosa; clinical isolate S-3): 50 µg/mL (≈ 79.4 µM)
- MIC (Pseudomonas aeruginosa; clinical isolate S-4): 50 µg/mL (≈ 79.4 µM)

Structure (SMILES): CCCCCC(=O)N1CCN(C(=O)N[C@@H](C(=O)N[C@@H]2C(=O)N3[C@@H]2SC(C)(C)[C@@H]3C(=O)O)c2ccccc2)C(=O)C1 [compound 6]
- MIC [2]: 3.13 µg/mL (≈ 5.46 µM)
- MIC (Klebsiella pneumoniae [3]): 6.25 µg/mL (≈ 10.9 µM)
- MIC (Proteus vulgaris 3027): 6.25 µg/mL (≈ 10.9 µM)
- MIC [4]: 50 µg/mL (≈ 87.2 µM)
- MIC (Escherichia coli NIHJ): 3.13 µg/mL (≈ 5.46 µM)

Structure (SMILES): CC1(C)S[C@@H]2[C@H](NC(=O)[C@H](NC(=O)N3CCN(S(C)(=O)=O)CC3=O)c3ccccc3)C(=O)N2[C@H]1C(=O)O [compound 5]
- MIC [2]: < 1.57 µg/mL
- MIC (Klebsiella pneumoniae [3]): 12.5 µg/mL (≈ 22.6 µM)
- MIC (Proteus vulgaris 3027): < 1.57 µg/mL
- MIC [4]: 25 µg/mL (≈ 45.2 µM)
- MIC (Escherichia coli NIHJ): < 1.57 µg/mL

Structure (SMILES): C=CC(C)N1CCN(C(=O)N[C@@H](C(=O)N[C@@H]2C(=O)N3[C@@H]2SC(C)(C)[C@@H]3C(=O)O)c2ccccc2)CC1=O (single isomer, unassigned) [compound 26]
- MIC [2]: < 1.57 µg/mL
- MIC (Klebsiella pneumoniae [3]): 25 µg/mL (≈ 47.2 µM)
- MIC (Proteus vulgaris 3027): 12.5 µg/mL (≈ 23.6 µM)
- MIC [4]: 25 µg/mL (≈ 47.2 µM)
- MIC (Escherichia coli NIHJ): < 1.57 µg/mL

Structure (SMILES): CN1CCN(C(=O)N[C@@H](C(=O)N[C@@H]2C(=O)N3[C@@H]2SC(C)(C)[C@@H]3C(=O)OCOC(=O)C(C)(C)C)c2ccccc2)C(=O)C1=O (single isomer, unassigned) [compound 52]
- MIC [2]: 0.79 µg/mL (≈ 1.28 µM)
- MIC (Klebsiella pneumoniae [3]): 25 µg/mL (≈ 40.5 µM)
- MIC (Proteus vulgaris 3027): 1.57 µg/mL (≈ 2.54 µM)
- MIC [4]: 25 µg/mL (≈ 40.5 µM)
- MIC (Escherichia coli NIHJ): 0.79 µg/mL (≈ 1.28 µM)

Structure (SMILES): CCN1CC(C)N(C(=O)NC(C(=O)NC2C(=O)N3C(C(=O)O)=C(CSc4nnnn4C)CSC23)c2ccccc2)C(=O)C1=O (stereo not drawn) [compound 66]
- MIC [2]: < 0.79 µg/mL
- MIC (Klebsiella pneumoniae [3]): 0.79 µg/mL (≈ 1.23 µM)
- MIC (Proteus vulgaris 3027): < 1.57 µg/mL
- MIC [4]: 25 µg/mL (≈ 38.8 µM)
- MIC (Escherichia coli NIHJ): < 0.79 µg/mL

Structure (SMILES): CC1(C)S[C@@H]2[C@H](NC(=O)[C@H](NC(=O)N3CCN(C(=O)C(Cl)Cl)CC3=O)c3ccccc3)C(=O)N2[C@H]1C(=O)O [compound 2]
- MIC [2]: < 1.57 µg/mL
- MIC (Klebsiella pneumoniae [3]): 12.5 µg/mL (≈ 21.3 µM)
- MIC (Proteus vulgaris 3027): 6.25 µg/mL (≈ 10.7 µM)
- MIC [4]: 50 µg/mL (≈ 85.3 µM)
- MIC (Escherichia coli NIHJ): < 1.57 µg/mL

Structure (SMILES): CC1(C)SC2C(NC(=O)C(NC(=O)N3CCNC(=O)C3=O)c3ccccc3)C(=O)N2C1C(=O)O (stereo not drawn) [compound 59]
- MIC [2]: < 1.57 µg/mL
- MIC (Klebsiella pneumoniae [3]): 200 µg/mL (≈ 409 µM)
- MIC (Proteus vulgaris 3027): 3.13 µg/mL (≈ 6.39 µM)
- MIC [4]: 25 µg/mL (≈ 51.1 µM)
- MIC (Escherichia coli NIHJ): < 1.57 µg/mL

Structure (SMILES): CN1CCN(C(=O)N[C@@H](C(=O)N[C@@H]2C(=O)N3[C@@H]2SC(C)(C)[C@@H]3C(=O)O)c2ccccc2)CC1=O [compound 17]
- MIC [2]: < 1.57 µg/mL
- MIC (Klebsiella pneumoniae [3]): 50 µg/mL (≈ 102 µM)
- MIC (Proteus vulgaris 3027): 6.25 µg/mL (≈ 12.8 µM)
- MIC [4]: 12.5 µg/mL (≈ 25.5 µM)
- MIC (Escherichia coli NIHJ): < 1.57 µg/mL

Structure (SMILES): CN1CCN(C(=O)NC(C(=O)NC2C(=O)N3C2SC(C)(C)C3C(=O)OCCN2CCOCC2)c2ccccc2)C(=O)C1=O (single isomer, unassigned) [compound 55]
- MIC [2]: 0.79 µg/mL (≈ 1.28 µM)
- MIC (Klebsiella pneumoniae [3]): 25 µg/mL (≈ 40.5 µM)
- MIC (Proteus vulgaris 3027): 0.79 µg/mL (≈ 1.28 µM)
- MIC [4]: 6.25 µg/mL (≈ 10.1 µM)
- MIC (Escherichia coli NIHJ): 0.4 µg/mL (≈ 0.649 µM)

Structure (SMILES): CN1CCN(C(=O)N[C@@H](C(=O)N[C@@H]2C(=O)N3[C@@H]2SC(C)(C)[C@@H]3C(=O)OCCN2CCCCC2)c2ccccc2)C(=O)C1=O (single isomer, unassigned) [compound 53]
- MIC [2]: 0.79 µg/mL (≈ 1.29 µM)
- MIC (Klebsiella pneumoniae [3]): 25 µg/mL (≈ 40.7 µM)
- MIC (Proteus vulgaris 3027): 0.79 µg/mL (≈ 1.29 µM)
- MIC [4]: 6.25 µg/mL (≈ 10.2 µM)
- MIC (Escherichia coli NIHJ): < 0.4 µg/mL

Structure (SMILES): CC1(C)S[C@@H]2[C@H](NC(=O)[C@H](NC(=O)N3CCN(C4CCCC4)C(=O)C3)c3ccccc3)C(=O)N2[C@H]1C(=O)O (single isomer, unassigned) [compound 32]
- MIC [2]: < 1.57 µg/mL
- MIC (Klebsiella pneumoniae [3]): 12.5 µg/mL (≈ 23 µM)
- MIC (Proteus vulgaris 3027): 6.25 µg/mL (≈ 11.5 µM)
- MIC [4]: 12.5 µg/mL (≈ 23 µM)
- MIC (Escherichia coli NIHJ): < 1.57 µg/mL
